Read-outs that look alike come from different tables or passages of the source.
Columns and labels:
[1] = Shake-flask solubility in n-hexane and dissolution thermodynamics; format: physicochemical; conditions: T 290.2 K; value = S2 × 10^3
[2] = Thermodynamic functions of the hypothetical n-hexane → 1-octanol transferring; format: physicochemical
Procedure: (§1) The apparent dissolution Gibbs energies ( ΔGsol ) and entropies ( ΔSsol ) were calculated at a standard temperature of 298.2 K and 310.2 K:(4) ΔGsol298.2/310.2=−RT(lnX2298.2/310.2) (5) ΔGsol298.2/310.2=ΔHsol0−TΔSsol298.2/310.2 where R is the universal gas constant.
The following conclusions can be derived from Table 3. The dissolution process is more favorable in 1-octanol as compared to n-hexane. In both solvents it is determined by the enthalpy, but the difference between the enthalpy and entropy contributions is not essential (especially in 1-octanol). The greater positive enthalpy term is a driving force of the unfavorable dissolution processes in these two solvents. A more than two-fold difference ΔHsol > TΔSsol exists in n-hexane, and a favorable positive entropy value is not enough to overlap the enthalpy one. From the dissolution thermodynamic functions, the hypothetical transfer n-hexane→1-octanol simulating the blood-brain penetration can be disclosed. As follows from Table 3, the transferring is favorable (negative ΔGtr value), in that the lower temperature facilitates the process. The hypothetical transition from n-hexane to 1-octanol is driven and determined by the negative enthalpy (~80%). A small negative entropy contribution— TΔStr indicates some ordering of the system upon the movement of the IPN molecules from n-hexane to 1-octanol.

[3] = Shake-flask solubility in n-hexane and dissolution thermodynamics; format: physicochemical; conditions: for Molar solubility S2 × 10^3 in n-Hexane: value = S2 × 10^3
Procedure: The solubility of the investigated drugs in 1-octanol and n-hexane was determined by the shake-flask technique. To this end, the glass vials containing the solutions with the excess amount of the compound were placed in an air thermostat and stirred at a predetermined temperature for no less than 24 h (equilibrium state). After this, the suspensions were left for 5 h or more to precipitate the undissolved drug and centrifuged (Biofuge pico, Thermo Electron LED GmbH, Langenselbold, Germany) at a predetermined temperature during 20 min (10,000 rpm). The aliquots of the clear solutions were taken and examined via a spectrophotometer (Cary-50 Varian, Palo Alto, CA, USA, Software Version 3.00 (339)). The molar concentrations of the compounds in the solvents were calculated using calibration curves at the appropriate wavelength characteristic for each substance. The experimental results were reported as an average of at least three replicated experiments with an accuracy of 2–4%. In order to evaluate the thermodynamic parameters of the IPN dissolution in 1-octanol and n-hexane, the molar solubility ( S2 ) was recalculated to the mole fraction ( X2 ) by the equation:(1) X2=M2S2/S2(M1−M2)+1000ρ, where M1 and M2 are the molar masses of IPN and organic solvent, respectively, and ρ (g∙cm^−3) is the density of the pure solvents. The linear functions describing the temperature dependences of the solubility within the temperature interval from 293.2 ± 0.5 K to 313.2 ± 0.5 K for both organic solvents were derived:(2) lnX2=A+B/T
The apparent solution enthalpies ΔHsol0 were determined by the van’t Hoff equation:(3) ∂(lnX2)/∂T=ΔHsol0/RT^2
as §1

[4] = set-up: method as in PMID 12750026; conditions: 293.2 K (20 °C); cited from earlier work
[5] = Membrane permeability in Franz diffusion cell; format: in vitro ADME; conditions: for Papp at 5 h: pH 7.4, PermeaPad barrier, read-out: permeability coefficient (Papp)
Procedure: Membrane permeability coefficients of the studied drugs were measured in the Franz diffusion cell of vertical type (PermeGear, Inc., Hellertown, PA, USA) with 7 mL/1 mL volumes of the donor and acceptor solutions through the reverse dialysis set up. The PermeaPad barrier (PHABIOC, Fritz-Souchon-Str.27 32339 Espelkamp Germany, www.innome.de) (0.785 cm^2 effective surface area) was mounted between the donor and acceptor chambers of the diffusion cell. The temperature was maintained at 310.2 ± 0.5 K throughout the experiment. Samples of 0.5 mL were withdrawn each 30 min from the acceptor solution and replaced with an equal amount of fresh buffer. Permeability experiments lasted over five hours in all cases. The solutions concentrations were analyzed via spectrophotometer (Spectramax 190; Molecular Devices Corporation, San Jose, CA, USA) in 96-well UV black plates (Costar) at a wavelength of 264 nm and 266 nm for IPN and INZ/iNAM, respectively. The dependences of the amount of the permeated drug over the surface area (dQ/A) on time (t) were plotted and flux (J) across the membrane was calculated by the equation:(11) J=dQ/A×dt The apparent permeability coefficients (Papp) were determined by normalizing the flux measured over the concentration of the drug in the donor compartment (C0) by the equation:(12) Papp=J/C0 Each permeability experiment was carried out in triplicate.
Similarly to the distribution, the permeability coefficients were obtained in the absence (for IPN, and iNAM) and in the presence of cyclodextrins (HP-β-CD and M-β-CD) (for IPN only) in the donor solution. The concentrations of cyclodextrins were 0.0115 M, 0.025 M and 0.035 M. The permeability coefficient for INZ through the PermeaPad barrier was determined in our previous investigation and taken in the present study for the sake of comparison.

Molar solubility S2 × 10^3 in n-Hexane [1]: 0.72 ± 0.01 × 10^3 (M)
TΔStr298.2 ([2]; 298.2 K): -0.884 kcal/mol
ΔGtr298.2 ([2]; 298.2 K): -3.78 kcal/mol
ζHtr ([2]; 298.2 K (first value of cell)): 84.1%
ΔHtr298.2/310.2 ([2]; 298.2 K and 310.2 K): -4.66 kcal/mol
TΔStr310.2 ([2]; 310.2 K): -0.932 kcal/mol
ΔGtr310.2 ([2]; 310.2 K): -3.73 kcal/mol
ζHtr ([2]; 310.2 K (second value of cell)): 83.3%
Molar solubility S2 × 10^3 in n-Hexane ([3]; T 293.2 K): 0.83 ± 0.03 × 10^3 (M)
Molar solubility S2 × 10^3 in n-Hexane ([3]; T 298.2 K): 1.07 ± 0.02 × 10^3 (M)
Molar solubility S2 × 10^3 in n-Hexane ([3]; T 303.2 K): 1.42 ± 0.03 × 10^3 (M)
Molar solubility S2 × 10^3 in n-Hexane ([3]; T 310.2 K): 2.03 ± 0.04 × 10^3 (M)
TΔSsol298.2 ([3]; n-hexane, 298.2 K): 4.3 ± 0.19 kcal/mol
ΔGsol298.2 ([3]; n-hexane, 298.2 K): 5.26 ± 0.096 kcal/mol
ζHsol ([3]; n-hexane, 298.2 K (first value of cell)): 69.0%
ΔHsol298.2/310.2 ([3]; n-hexane, 298.2 K and 310.2 K): 9.56 ± 0.22 kcal/mol
TΔSsol310.2 ([3]; n-hexane, 310.2 K): 4.49 ± 0.19 kcal/mol
ΔGsol310.2 ([3]; n-hexane, 310.2 K): 5.07 ± 0.096 kcal/mol
ζHsol ([3]; n-hexane, 310.2 K (second value of cell)): 68.0%
steady penetrate rate - flux J∙10^4 ([5]; PermeaPad barrier, 310.2 K, pH 7.4, printed value = J × 10^4, cyclodextrin in donor solution as in the label): 1.25 ∙10^4 (μM∙cm‐2∙s‐1)
Papp∙10^5 ([5]; PermeaPad barrier, 310.2 K, pH 7.4, value = Papp × 10^5, cyclodextrin in donor solution as in the label): 2.03±0.05 ∙10^5 (cm∙s‐1)
Papp at 5 h ([5]; 310.2 K, without cyclodextrins): 20.3 ×10⁻⁶ cm/s
Papp at 5 h ([5]; enhancement in the presence of M-β-CD in donor solution (highest value reached)): ≤ 28.7 ×10⁻⁶ cm/s
Papp at 5 h ([5]; slight decrease upon growing HP-β-CD concentration in donor solution (lowest value reached)): ≥ 17.8 ×10⁻⁶ cm/s
SMILES: CC(C)NNC(=O)c1ccncc1 [IPN, N′-isopropyl isonicotinic hydrazide]
log Dexpoct/pH7.4 [4]: 0.35 ± 0.10
